The source of these data is paper PMC6994497, “Structural basis for Glycan-receptor binding by mumps virus hemagglutinin-neuraminidase” (Scientific Reports, 2020).

The target of this test is T1, MuV-HN (Mumps orthorubulavirus, UniProt Q9WAF5).
T1 construct: pHLsec N-terminal secretion signal, C-terminal His6 tag; secreted from HEK293S GnTI(-) cells; Ni-NTA and size exclusion
In words: STD NMR. In kind it is binding. The settings on record: deuterated phosphate buffer pH 7.4; reaction mixture after hydrolysis of 1, also free reducing sialic acid.

Each structure is given as a SMILES string.

T1 sequence (Q9WAF5 96-582): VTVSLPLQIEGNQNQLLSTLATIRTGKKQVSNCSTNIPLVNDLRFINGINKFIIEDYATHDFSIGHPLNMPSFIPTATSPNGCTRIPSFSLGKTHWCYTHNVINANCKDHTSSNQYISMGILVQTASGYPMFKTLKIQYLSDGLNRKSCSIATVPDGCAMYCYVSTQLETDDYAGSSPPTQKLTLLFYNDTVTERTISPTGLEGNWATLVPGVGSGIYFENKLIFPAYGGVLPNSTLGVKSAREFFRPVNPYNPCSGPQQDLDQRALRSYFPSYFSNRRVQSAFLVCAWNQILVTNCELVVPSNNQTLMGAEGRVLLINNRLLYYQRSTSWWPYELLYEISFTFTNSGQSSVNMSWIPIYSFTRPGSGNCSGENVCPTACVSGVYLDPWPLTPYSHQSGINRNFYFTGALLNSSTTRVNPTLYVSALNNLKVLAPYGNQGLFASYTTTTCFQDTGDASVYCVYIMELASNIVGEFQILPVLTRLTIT

In the case of `CC(=O)N[C@H]1[C@H]([C@H](O)[C@H](O)CO)OC(O)(C(=O)O)C[C@@H]1O` (stereo partly shown) [reducing Sia], the “STD NMR” value was “the protein was able to bind the reducing sialic acid produced during the hydrolysis reaction”.
